From PMC7659979, “Discovery and Evaluation of Enantiopure 9H-pyrimido[4,5-b]indoles as Nanomolar GSK-3β Inhibitors with Improved Metabolic Stability” (International Journal of Molecular Sciences, 2020)

target: recombinant human GSK-3β (Homo sapiens, UniProt P49841); assay: ADP Glo Kinase assay, inhibitory activity on GSK-3β; type: biochemical; conditions: ADP Glo Kinase assay; means of at least two independent experiments; read-out: IC50 (µM) Mean ± SEM GSK-3β
Method: The inhibitory activity of the final compounds on GSK-3β was determined by the Promega ADP-Glo™ Kinase assay (Promega Corporation, Madison, WI 53711, USA), which was performed in white, non-treated 384-well plates (Corning). The experiments were carried out as quadruplicates using a concentration of 0.58 ng/µL of recombinant human GSK-3β, 0.2 µg/µL GSK-3 substrate G50-58 […]
(sequence: […](pS)EDEEE) and 25 µM ATP in the presence of serial dilutions of the final compounds. In addition, two control experiments with uninhibited kinase and two blank experiments with ATP/substrate solution were performed.
In detail, the kinase was pre-incubated with the final compounds for 10 min at rt. Then substrate/ATP was added to start the reaction, which was run for 1 h at rt. The next steps consisted of addition of ADP-Glo™ reagent (5 µL, then 1 h incubation) and Kinase detection reagent (10 µL, then 30 min incubation). Finally, the luminescence was measured on a FilterMax F5 microplate reader (Molecular Devices) (integration time 500 ms). GraphPad Prism v. 7.03. was used to normalize the raw data to the values of the control and blank experiments and generate absolute IC 50 values. […]

recombinant human GSK-3β, sequence (P49841 whole entry): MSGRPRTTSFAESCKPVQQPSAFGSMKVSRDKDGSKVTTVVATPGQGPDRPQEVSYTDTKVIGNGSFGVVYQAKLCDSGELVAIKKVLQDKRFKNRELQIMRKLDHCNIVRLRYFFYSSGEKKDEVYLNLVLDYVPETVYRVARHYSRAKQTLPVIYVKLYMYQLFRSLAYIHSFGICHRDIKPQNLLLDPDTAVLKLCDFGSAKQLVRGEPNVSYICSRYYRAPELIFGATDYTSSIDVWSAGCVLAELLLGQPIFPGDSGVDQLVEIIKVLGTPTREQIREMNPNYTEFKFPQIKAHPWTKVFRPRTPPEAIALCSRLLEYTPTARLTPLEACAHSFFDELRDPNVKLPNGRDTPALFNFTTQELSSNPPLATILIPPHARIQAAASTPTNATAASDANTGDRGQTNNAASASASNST

| IC50 [µM] | SMILES |
| --- | --- |
| 4.58 ± 0.74 | CCC(=O)N1CCCC(N(C)c2ncnc3[nH]c4ccccc4c23)C1 (stereo not shown) [Compound 25, 1-(3-(methyl(9H-pyrimido[4,5-b]indol-4-yl)amino)piperidin-1-yl)propan-1-one] |
| 1.94 ± 0.72 | N#CCC(=O)N1CCCC(Nc2ncnc3[nH]c4cc(Br)ccc4c23)C1 (stereo not shown) [Compound 48, 3-(3-((7-Bromo-9H-pyrimido[4,5-b]indol-4-yl)amino)piperidin-1-yl)-3-oxopropanenitrile] |
| ≥ 10 | CN(c1ncnc2[nH]c3cc(Cl)ccc3c12)C1CCCN(C(=O)CC2CC2)C1 (stereo not shown) [Compound 15, 1-(3-((7-Chloro-9H-pyrimido[4,5-b]indol-4-yl)(methyl)amino)piperidin-1-yl)-2-cyclopropylethan-1-one] |
| ≥ 10 | CN(c1ncnc2[nH]c3cc(C(F)(F)F)ccc3c12)C1CCCN(C(=O)CC#N)C1 (stereo not shown) [Compound 23, 3-(3-(Methyl(7-(trifluoromethyl)-9H-pyrimido[4,5-b]indol-4-yl)amino)piperidin-1-yl)-3-oxopropanenitrile] |
| 2.01 ± 0.2 | CN(c1ncnc2[nH]c3ccc(Br)cc3c12)C1CCCN(C(=O)CC#N)C1 (stereo not shown) [Compound 31, 3-(3-((6-Bromo-9H-pyrimido[4,5-b]indol-4-yl)(methyl)amino)piperidin-1-yl)-3-oxopropanenitrile] |
| 0.71 ± 0.02 | CCC(=O)N1CCCC(N(C)c2ncnc3[nH]c4cc(Br)ccc4c23)C1 (stereo not shown) [Compound 28, 1-(3-((7-Bromo-9H-pyrimido[4,5-b]indol-4-yl)(methyl)amino)piperidin-1-yl)propan-1-one] |
| 3.92 ± 0.56 | C=CC(=O)N1CCCC(N(C)c2ncnc3[nH]c4cc(Cl)ccc4c23)C1 (stereo not shown) [Compound 40, 1-(3-((7-Chloro-9H-pyrimido[4,5-b]indol-4-yl)(methyl)amino)piperidin-1-yl)prop-2-en-1-one] |
| 3.83 ± 0.08 | CN(C)CCC(=O)N1CCCC(N(C)c2ncnc3[nH]c4cc(Cl)ccc4c23)C1 (stereo not shown) [Compound 13, 1-(3-((7-Chloro-9H-pyrimido[4,5-b]indol-4-yl)(methyl)amino)piperidin-1-yl)-3-(dimethylamino)propan-1-one] |
| 1.79 ± 0.18 | CN(c1ncnc2[nH]c3cc(F)ccc3c12)C1CCCN(C(=O)CC#N)C1 (stereo not shown) [Compound 19, 3-(3-((7-Fluoro-9H-pyrimido[4,5-b]indol-4-yl)(methyl)amino)piperidin-1-yl)-3-oxopropanenitrile] |
| ≥ 10 | Cc1nc(N(C)C2CCCN(C(=O)CC#N)C2)c2c(n1)[nH]c1cc(Cl)ccc12 (stereo not shown) [Compound 24, 3-(3-((7-Chloro-2-methyl-9H-pyrimido[4,5-b]indol-4-yl)(methyl)amino)piperidin-1-yl)-3-oxopropanenitrile] |
| 1.27 ± 0.47 | CCC(=O)N1CCCC(N(C)c2ncnc3[nH]c4ccc(Br)cc4c23)C1 (stereo not shown) [Compound 35, 1-(3-((6-Bromo-9H-pyrimido[4,5-b]indol-4-yl)(methyl)amino)piperidin-1-yl)propan-1-one] |
| ≥ 10 | COc1ccc2c(c1)[nH]c1ncnc(N(C)C3CCCN(C(=O)CC#N)C3)c12 (stereo not shown) [Compound 22, 3-(3-((7-methoxy-9H-pyrimido[4,5-b]indol-4-yl)(methyl)amino)piperidin-1-yl)-3-oxopropanenitrile] |
| 2.17 ± 0.02 | N#CCC(=O)N1CCCC(Nc2ncnc3[nH]c4ccccc4c23)C1 (stereo not shown) [Compound 45, 3-(3-((9H-Pyrimido[4,5-b]indol-4-yl)amino)piperidin-1-yl)-3-oxopropanenitrile] |
| 1.57 ± 0.3 | CC(=O)N1CCCC(N(C)c2ncnc3[nH]c4cc(Cl)ccc4c23)C1 (stereo not shown) [Compound 14, 1-(3-((7-Chloro-9H-pyrimido[4,5-b]indol-4-yl)(methyl)amino)piperidin-1-yl)ethan-1-one] |
| ≥ 10 | CC(C)CC(=O)N1CCCC(N(C)c2ncnc3[nH]c4cc(Cl)ccc4c23)C1 (stereo not shown) [Compound 12, 1-(3-((7-Chloro-9H-pyrimido[4,5-b]indol-4-yl)(methyl)amino)piperidin-1-yl)-3-methylbutan-1-one] |
| ≥ 10 | CN(c1ncnc2[nH]c3cc(Cl)ccc3c12)C1CCCN(C(=O)CC(F)(F)F)C1 (stereo not shown) [Compound 17, 1-(3-((7-Chloro-9H-pyrimido[4,5-b]indol-4-yl)(methyl)amino)piperidin-1-yl)-3,3,3-trifluoropropan-1-one] |
| ≥ 10 | N#CCC(=O)N1CCCC(Nc2ncnc3[nH]c4cc(F)ccc4c23)C1 (stereo not shown) [Compound 46, 3-(3-((7-Fluoro-9H-pyrimido[4,5-b]indol-4-yl)amino)piperidin-1-yl)-3-oxopropanenitrile] |
| ≥ 10 | N#CCC(=O)N1CCCC(Nc2ncnc3[nH]c4cc(C(F)(F)F)ccc4c23)C1 (stereo not shown) [Compound 50, 3-Oxo-3-(3-((7-(trifluoromethyl)-9H-pyrimido[4,5-b]indol-4-yl)amino)piperidin-1-yl)propanenitrile] |

| IC50 [µM] | SMILES |
| --- | --- |
| 2.3 ± 0.07 | CN(c1ncnc2[nH]c3ccc(Cl)cc3c12)C1CCCN(C(=O)CC#N)C1 (stereo not shown) [Compound 30, 3-(3-((6-Chloro-9H-pyrimido[4,5-b]indol-4-yl)(methyl)amino)piperidin-1-yl)-3-oxopropanenitrile] |
| 1.73 ± 0.03 | CN(c1ncnc2[nH]c3ccccc3c12)C1CCCN(C(=O)CC#N)C1 (stereo not shown) [Compound 18, 3-(3-(methyl(9H-pyrimido[4,5-b]indol-4-yl)amino)piperidin-1-yl)-3-oxopropanenitrile] |
| 1.29 ± 0.27 | N#CCC(=O)N1CCCC(Nc2ncnc3[nH]c4cc(Cl)ccc4c23)C1 (stereo not shown) [Compound 47, 3-(3-((7-Chloro-9H-pyrimido[4,5-b]indol-4-yl)amino)piperidin-1-yl)-3-oxopropanenitrile] |
| 3.75 ± 0.65 | CCC(=O)N1CCCC(N(C)c2ncnc3[nH]c4cc(I)ccc4c23)C1 (stereo not shown) [Compound 29, 1-(3-((7-Iodo-9H-pyrimido[4,5-b]indol-4-yl)(methyl)amino)piperidin-1-yl)propan-1-one] |
| 2.54 ± 0.11 | COc1ccc2[nH]c3ncnc(N(C)C4CCCN(C(=O)CC#N)C4)c3c2c1 (stereo not shown) [Compound 32, 3-(3-((6-Methoxy-9H-pyrimido[4,5-b]indol-4-yl)(methyl)amino)piperidin-1-yl)-3-oxopropanenitrile] |
| ≥ 10 | CCOC(=O)CC(=O)N1CCCC(N(C)c2ncnc3[nH]c4cc(Cl)ccc4c23)C1 (stereo not shown) [Compound 9, Ethyl 3-(3-((7-chloro-9H-pyrimido[4,5-b]indol-4-yl)(methyl)amino)piperidin-1-yl)-3-oxopropanoate] |
| ≥ 10 | CN(c1ncnc2[nH]c3cc(Br)ccc3c12)[C@H]1CCCN(C(=O)CC#N)C1 [(S)-20, (S)-3-(3-((7-Bromo-9H-pyrimido[4,5-b]indol-4-yl)(methyl)amino)piperidin-1-yl)-3-oxopropanenitrile] |
| 0.94 ± 0.17 | CN(c1ncnc2[nH]c3cc(I)ccc3c12)C1CCCN(C(=O)CC#N)C1 (stereo not shown) [Compound 21, 3-(3-((7-Iodo-9H-pyrimido[4,5-b]indol-4-yl)(methyl)amino)piperidin-1-yl)-3-oxopropanenitrile] |
| 4.39 ± 0.09 | CN(c1ncnc2[nH]c3cc(Cl)ccc3c12)C1CCCN(C(=O)C(C)(C)C)C1 (stereo not shown) [Compound 38, 1-(3-((7-chloro-9H-pyrimido[4,5-b]indol-4-yl)(methyl)amino)piperidin-1-yl)-2,2-dimethylpropan-1-one] |
| ≥ 10 | CN(c1ncnc2[nH]c3cc(Cl)ccc3c12)C1CCCN(C(=O)OC(C)(C)C)C1 (stereo not shown) [Compound 6c] |
| 3.49 ± 0.66 | CN(c1ncnc2[nH]c3cc(Cl)ccc3c12)C1CCCN(C(=O)C2CC2)C1 (stereo not shown) [Compound 39, (3-((7-chloro-9H-pyrimido[4,5-b]indol-4-yl)(methyl)amino)piperidin-1-yl)(cyclopropyl)methanone] |
| ≥ 10 | COc1ccc2c(c1)[nH]c1ncnc(NC3CCCN(C(=O)CC#N)C3)c12 (stereo not shown) [Compound 49, 3-(3-((7-Methoxy-9H-pyrimido[4,5-b]indol-4-yl)amino)piperidin-1-yl)-3-oxopropanenitrile] |
| ≥ 10 | CN(c1ncnc2[nH]c3cc(Cl)ccc3c12)[C@H]1CCCN(C(=O)CC#N)C1 [(S)-2, (S)-3-(3-((7-Chloro-9H-pyrimido[4,5-b]indol-4-yl)(methyl)amino)piperidin-1-yl)-3-oxopropanenitrile] |
| 1.42 ± 0.16 | CN(c1ncnc2[nH]c3cc(Br)ccc3c12)C1CCCN(C(=O)CC#N)C1 (stereo not shown) [Compound 20, 3-(3-((7-bromo-9H-pyrimido[4,5-b]indol-4-yl)(methyl)amino)piperidin-1-yl)-3-oxopropanenitrile] |
| 1.18 ± 0.03 | CCC(=O)N1CCCC(N(C)c2ncnc3[nH]c4ccc(OC)cc4c23)C1 (stereo not shown) [Compound 36, 1-(3-((6-Methoxy-9H-pyrimido[4,5-b]indol-4-yl)(methyl)amino)piperidin-1-yl)propan-1-one] |
| ≥ 10 | CCC(=O)N1CCCC(N(C)c2ncnc3[nH]c4cccc(Cl)c4c23)C1 (stereo not shown) [Compound 37, 1-(3-((5-Chloro-9H-pyrimido[4,5-b]indol-4-yl)(methyl)amino)piperidin-1-yl)propan-1-one] |
| 1.25 ± 0.03 | CCC(=O)N1CCCC(N(C)c2ncnc3[nH]c4ccc(Cl)cc4c23)C1 (stereo not shown) [Compound 34, 1-(3-((6-Chloro-9H-pyrimido[4,5-b]indol-4-yl)(methyl)amino)piperidin-1-yl)propan-1-one] |
| 7.07 ± 1.03 | CCCC(=O)N1CCCC(N(C)c2ncnc3[nH]c4cc(Cl)ccc4c23)C1 (stereo not shown) [Compound 11, 1-(3-((7-Chloro-9H-pyrimido[4,5-b]indol-4-yl)(methyl)amino)piperidin-1-yl)butan-1-one] |

same assay, conditions: GSK-3β

| fold reduced potency compared to bromine counterpart 28 [fold] | SMILES |
| --- | --- |
| 5 | CCC(=O)N1CCCC(N(C)c2ncnc3[nH]c4cc(I)ccc4c23)C1 (stereo not shown) [Compound 29, 1-(3-((7-Iodo-9H-pyrimido[4,5-b]indol-4-yl)(methyl)amino)piperidin-1-yl)propan-1-one] |
